In brackets after ≈: the same amount, converted by molar mass.
Tests used:
E. coli ATCC 25922 = assay: Antibacterial activity in vitro, broth microdilution; assay type: cell-based; settings: Escherichia coli, ATCC25922; broth microdilution (CLSI), 16–24 h at 37 °C
Experimental: (§1) Synthesized compounds were prepared as 10 mM DMSO solutions and tested in a final concentration range of 100–0.2 µM [34].
(§2) Broth microdilution testing was performed according to CLSI (Clinical Laboratory Standards Institute) guidelines. MIC (minimal inhibitory concentration) values were defined as the last tested concentration of the compound at which there was no visible growth of bacteria. Inoculums for each microorganism were prepared using the direct colony suspension method, where broth solutions that achieved turbidity equivalent to 0.5 McFarland standard were additionally diluted 100× with Ca-adjusted MH media (Becton Dickinson).

S. aureus ATCC 29213 = assay: as above; assay type: cell-based; settings: Staphylococcus aureus, ATCC29213; broth microdilution (CLSI), 16–24 h at 37 °C
Experimental: as §1, §2

S. Pneumoniae ATCC 49619 = assay: as above; assay type: cell-based; settings: Streptococcus pneumoniae, ATCC49619; broth microdilution (CLSI), 16–24 h at 37 °C
Experimental: as §1, §2

E. coli Efflux Del = assay: microbe, parasite or virus in culture; assay type: cell-based; settings: Escherichia coli, read-out: MIC E. coli Efflux Del
Experimental: as §1, §2

[1] = tested on: DND-41 acute lymphoblastic leukemia cells; assay: In vitro antiproliferative activity, MTS proliferation assay; assay type: cell-based; settings: Homo sapiens, DND41, 72 h
Experimental: (§3) Culture media were purchased from Gibco Life Technologies, USA, and supplemented with 10% fetal bovine serum (HyClone, GE Healthcare Life Sciences, Chicago, IL, USA), except for the media for SW620, PC3 and HeLa cells, which were purchased from Sigma.
(§4) Cells were incubated for 72 h with compounds and were then analyzed using the CellTiter 96® AQueous One Solution Cell Proliferation Assay (MTS) reagent (Promega) according to the manufacturer’s instructions. […] Compounds were tested in two independent experiments. SW620, PC3 and HeLa cells were seeded in 96-well microtiter plates at 1 × 10^4 to 3 × 10^4 cells/mL, depending on the doubling times of the specific cell line. Test agents were then added in five 10-fold dilutions (10^−8 to 10^−4 M). Working dilutions were freshly prepared on the day of testing. After 72 h of incubation, the cell growth rate was evaluated using the MTT assay as described previously. […] Each test was performed in quadruplicate in at least two individual experiments.

[2] = tested on: Capan-1 pancreatic adenocarcinoma cells; assay: as above; assay type: cell-based; settings: Homo sapiens, 72 h
Experimental: as §3, §4

[3] = tested on: HL-60 acute myeloid leukemia cells; assay: as above; assay type: cell-based; settings: Homo sapiens, 72 h
Experimental: as §3, §4

[4] = tested on: LN-229 glioblastoma cells; assay: as above; assay type: cell-based; settings: Homo sapiens, 72 h
Description: (§5) Human cancer cell lines used in this manuscript, namely Capan-1, HCT-116, NCI-H460, LN-229, HL-60, K-562, Z-138, SW620, PC3 and HeLa, were acquired from the American Type Culture Collection (ATCC, Manassas, VA, USA), while the DND-41 cell line was purchased from the Deutsche Sammlung von Mikroorganismen und Zellkulturen (DSMZ Leibniz-Institut, Germany). Culture media were purchased from Gibco Life Technologies, USA, and supplemented with 10% fetal bovine serum (HyClone, GE Healthcare Life Sciences, Chicago, IL, USA), except for the media for SW620, PC3 and HeLa cells, which were purchased from Sigma.
(§6) Adherent cell lines LN-229, HCT-116, NCI-H460 and Capan-1 cells were seeded at a density between 500 and 1500 cells per well in 384-well tissue culture plates (Greiner). […]. Cells were incubated for 72 h with compounds and were then analyzed using the CellTiter 96® AQueous One Solution Cell Proliferation Assay (MTS) reagent (Promega) according to the manufacturer’s instructions. Absorbance of the samples was measured at 490 nm using a SpectraMax Plus 384 (Molecular Devices), and OD values were used to calculate the 50% inhibitory concentration (IC50). Compounds were tested in two independent experiments. SW620, PC3 and HeLa cells were seeded in 96-well microtiter plates at 1 × 10^4 to 3 × 10^4 cells/mL, depending on the doubling times of the specific cell line. Test agents were then added in five 10-fold dilutions (10^−8 to 10^−4 M). Working dilutions were freshly prepared on the day of testing. After 72 h of incubation, the cell growth rate was evaluated using the MTT assay as described previously. Absorbance of the samples was measured at 570 nm, and OD values were used to calculate the 50% inhibitory concentration (IC50). Each test was performed in quadruplicate in at least two individual experiments.

[5] = tested on: K-562 chronic myeloid leukemia cells; assay: as above; assay type: cell-based; settings: Homo sapiens, K562, 72 h
Description: as §5, §6

[6] = tested on: NCI-H460 lung carcinoma cells; assay: as above; assay type: cell-based; settings: Homo sapiens, 72 h
Description: as §5, §6

[7] = tested on: HCT-116 colorectal carcinoma cells; assay: as above; assay type: cell-based; settings: Homo sapiens, 72 h
Description: as §5, §6

[8] = tested on: Z-138 non-Hodgkin lymphoma cells; assay: as above; assay type: cell-based, human; settings: Homo sapiens, Z-138, 72 h
Description: as §5, §6

in vitro [9] = settings: dog
in vitro [10] = settings: human
[11] = tested on: SW620 colon carcinoma cells; assay: In vitro antiproliferative activity, MTT assay; assay type: cell-based; settings: Homo sapiens, SW-620, 72 h
Description: as §5, §6

[12] = tested on: HeLa cervical carcinoma cells; assay: In vitro antiproliferative activity, MTT assay; assay type: cell-based; settings: Homo sapiens, 72 h
Description: as §5, §6

[13] = tested on: PC3 prostate carcinoma cells; assay: In vitro antiproliferative activity, MTT assay; assay type: cell-based; settings: Homo sapiens, 72 h
Description: as §5, §6

in vitro [14] = settings: human; remark: listed apart in the source
[15] = tested on: Influenza H3N2 (A/HK/7/87); assay: Antiviral CPE reduction assay; assay type: cell-based; settings: Influenza A virus, MDCK cells
[16] = tested on: Influenza H1N1 (A/Ned/378/05); assay: Antiviral CPE reduction assay; assay type: cell-based; settings: Influenza A virus, MDCK cells
[17] = tested on: Influenza B (B/Ned/537/05); assay: Antiviral CPE reduction assay; assay type: cell-based; settings: Influenza B virus, MDCK cells

Compound | MIC (E. coli ATCC 25922) [µM] | MIC (S. aureus ATCC 29213) [µM] | MIC (S. Pneumoniae ATCC 49619) [µM] | MIC (E. coli Efflux Del) [µM] | IC50 [1] [µM] | IC50 [2] [µM] | IC50 [3] [µM] | IC50 [4] [µM] | IC50 [5] [µM] | IC50 [6] [µM] | IC50 [7] [µM] | IC50 [8] [µM] | CC50 (in vitro [9]) [µM] | CC50 (in vitro [10]) [µM] | IC50 [11] [µM] | IC50 [12] [µM] | IC50 [13] [µM] | CC50 (in vitro [14]) [µM] | melting point [°C] | also measured
CC(C)(O/N=C(\C(=O)N[C@@H]1C(=O)N2C(C(=O)[O-])=C(C[n+]3ccccc3)CS[C@H]12)c1csc(N)n1)C(=O)O [Ceftazidime, ceftazidime, reference compound] | 0.25 (≈ 0.137 µg/mL) | 16 (≈ 8.75 µg/mL) | 0.25 (≈ 0.137 µg/mL) | 0.25 (≈ 0.137 µg/mL) |  |  |  |  |  |  |  |  |  |  |  |  |  |  |  | 
CC(=O)O[C@@]12CO[C@@H]1C[C@H](O)[C@@]1(C)C(=O)[C@H](O)C3=C(C)[C@@H](OC(=O)[C@H](O)[C@@H](NC(=O)OC(C)(C)C)c4ccccc4)C[C@@](O)([C@@H](OC(=O)c4ccccc4)[C@H]21)C3(C)C [DTX, docetaxel, reference compound] |  |  |  |  | 0.0025 | 0.0038 ± 0.003 | 0.0022 | 0.0041 ± 0.003 | 0.0085 ± 0.001 | 0.0034 | 0.0025 | 0.0023 |  |  |  |  |  |  |  | 
Cl.c1cnc2nc(-c3ccc(C4=NCCCN4)cc3)[nH]c2c1 [Compound 12, 2-(4-(1H-Imidazo[4,5-b]pyridin-2-yl)phenyl)-3,4,5,6-tetrahydropyrimidin-1-ium Chloride] | > 64 | > 64 | > 64 | > 64 | > 100 | > 100 | > 100 | > 100 | > 100 | > 100 | > 100 | > 100 | > 100 | > 100 | > 100 | > 100 | > 100 | > 100 | > 300 | 
CC1(C)S[C@@H]2[C@H](NC(=O)[C@H](N)c3ccccc3)C(=O)N2[C@H]1C(=O)O [Ampicillin, ampicillin, reference compound] | 1 (≈ 0.349 µg/mL) | 1 (≈ 0.349 µg/mL) | < 0.125 |  |  |  |  |  |  |  |  |  |  |  |  |  |  |  |  | 
N#Cc1ccc(-c2nc3ncccc3[nH]2)cc1 [Compound 6, 4-(1H-Imidazo[4,5-b]pyridin-2-yl)benzonitrile] | > 64 | > 64 | > 64 | > 64 | > 100 | > 100 | > 100 | > 100 | > 100 | > 100 | > 100 | > 100 | > 100 | > 100 | > 100 | 28.9 ± 7.2 | > 100 | > 100 |  | 
Cn1c(-c2ccc(C#N)cc2)nc2cc(Br)cnc21 [Compound 19, 4-(6-Bromo-3-methyl-3H-imidazo[4,5-b]pyridin-2-yl)benzonitrile] | > 64 | > 64 | > 64 | > 64 | > 100 | > 100 | > 100 | > 100 | > 100 | > 100 | > 100 | > 100 | > 100 | > 100 | 63.8 ± 7.4 | 26.1 ± 0.01 | 28.8 ± 15 | > 100 | 234 to 235 | 
C[C@@H](O)[C@H]1C(=O)N2C(C(=O)O)=C(S[C@@H]3CN[C@H](C(=O)N(C)C)C3)[C@H](C)[C@H]12 [Meropenem, meropenem, reference compound] | < 0.125 | < 0.125 | < 0.125 | < 0.125 |  |  |  |  |  |  |  |  |  |  |  |  |  |  |  | 
CN[C@@H]1C[C@H]2O[C@@](C)([C@@H]1OC)n1c3ccccc3c3c4c(c5c6ccccc6n2c5c31)C(=O)NC4 [STS, staurosporine, reference compound] |  |  |  |  |  |  |  | 0.0668 ± 0.016 | 0.0374 ± 0.006 | 0.0448 ± 0.004 | 0.0701 ± 0.006 | 0.0484 ± 0.007 |  |  |  |  |  |  |  | 
Cn1c(-c2ccccc2)nc2cc(Br)cnc21 [Compound 18, 6-Bromo-3-methyl-2-phenyl-3H-imidazo[4,5-b]pyridine] | > 64 | > 64 | > 64 | > 64 | > 100 | > 100 | > 100 | > 100 | > 100 | > 100 | > 100 | > 100 | > 100 | > 100 | > 100 | 48 ± 0.2 | > 100 | > 100 | 214 to 215 | 
CC(C)NC(=N)c1ccc(-c2nc3ncc(Br)cc3[nH]2)cc1.Cl [Compound 16, 4-(6-Bromo-1H-imidazo[4,5-b]pyridin-2-yl)-N-isopropylbenzimidamide Hydrochloride] | > 64 | > 64 | > 64 | > 64 | 11.9 ± 0.1 | 52.7 ± 2.9 | 91.4 ± 5.1 | 52.4 ± 8.1 | 53.6 ± 2.8 | > 100 | 77.2 ± 19.1 | 12.1 ± 0.8 | 71.2 ± 40.8 |  | 7.4 ± 1.1 | 13.3 ± 4.3 | 13.3 ± 2.6 |  | > 300 | 
Cl.N=C(N)c1ccc(-c2nc3ncccc3[nH]2)cc1 [Compound 9, 4-(1H-Imidazo[4,5-b]pyridin-2-yl)benzimidamide Hydrochloride] | > 64 | > 64 | > 64 | > 64 | > 100 | > 100 | > 100 | > 100 | > 100 | > 100 | > 100 | > 100 | > 100 | > 100 | > 100 | > 100 | > 100 | > 100 | > 300 | 
COc1cc([C@@H]2c3cc4c(cc3[C@@H](O[C@@H]3O[C@@H]5CO[C@@H](C)O[C@H]5[C@H](O)[C@H]3O)[C@H]3COC(=O)[C@H]23)OCO4)cc(OC)c1O [etoposide, reference compound] |  |  |  |  |  |  |  |  |  |  |  |  |  |  | 0.63 ± 0.1 | 0.004 ± 0.001 | 11.6 ± 1.9 |  |  | 
COc1cccc2c1C(=O)c1c(O)c3c(c(O)c1C2=O)C[C@@](O)(C(=O)CO)C[C@@H]3O[C@H]1C[C@H](N)[C@H](O)[C@H](C)O1 [doxorubicine, reference compound] |  |  |  |  |  |  |  |  |  |  |  |  |  |  | 0.02 | 0.16 ± 0.05 | 0.13 ± 0.02 |  |  | 
CC(=O)N[C@H]1[C@H]([C@H](O)[C@H](O)CO)OC(C(=O)O)=C[C@@H]1N=C(N)N [Zanamivir, zanamivir, reference compound] |  |  |  |  |  |  |  |  |  |  |  |  | > 100 |  |  |  |  |  |  | EC50 [15]: 16.8 ± 6.8 µM; EC50 [16]: 0.13 ± 0.04 µM; EC50 [17]: 0.05 ± 0.03 µM

From publication PMC9822021, “Biological Activity of Amidino-Substituted Imidazo [4,5-b]pyridines” (Molecules, 2022)
